Results from the supplement of paper PMC10331698.
± gives the standard deviation of the averaged measurements.

What was measured:
Assay in all cases: level (log10 ratio to DMSO vehicle control); higher = higher biomarker level / cell amount than vehicle control
[1] = compound: FC(F)(F)C(F)(F)C(F)(F)C(F)(F)CCI [1H,1H,2H,2H-Perfluorohexyl iodide]; conditions: in DMSO
Method: (§1)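 BioMAP Diversity Plus panel of 12 human primary cell co-culture systems (3C, 4H, LPS, SAg, BT, BF4T, BE3C, CASM3C, HDF3CGF, KF3CT, MyoF, Mphg). Compounds were added 1 h before stimulation and left for 24 h (MyoF 48 h; BT 72 h for soluble read-outs or 6 d for IgG). Biomarkers were read by ELISA, cytotoxicity by SRB, PBMC viability and proliferation by Alamar Blue. Each well value was divided by the mean of 8 DMSO control wells on the same plate and log10 transformed; duplicate blinded samples were tested at 4 concentrations.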

[2] = compound: OCC(F)(F)C(F)(F)C(F)(F)C(F)(F)C(F)(F)C(F)(F)C(F)(F)C(F)(F)CO [1H,1H,10H,10H-Perfluorodecane-1,10-diol]; conditions: in DMSO
Method: as §1

[3] = compound: C=CC(=O)OCC(F)(F)C(F)(F)C(F)(F)C(F)(F)C(F)(F)C(F)(F)C(F)(F)C(F)F [1H,1H,9H-Perfluorononyl acrylate]; conditions: in DMSO
Method: as §1

[4] = compound: Cc1ccc(S(=O)(=O)OCC(F)(F)C(F)(F)C(F)(F)C(F)(F)C(F)(F)C(F)F)cc1 [1H,1H,7H-Perfluoroheptyl 4-methylbenzenesulfonate]; conditions: in DMSO
Method: as §1

[5] = compound: O=C(CC(=O)C(F)(F)C(F)(F)C(F)(F)F)c1cccs1 [(Perfluorobutyryl)-2-thenoylmethane]; conditions: in DMSO
Method: as §1

[6] = compound: OCCC(F)(F)C(F)(F)C(F)(F)C(F)(F)C(F)(F)C(F)(F)C(F)(F)C(F)(F)F [8:2 Fluorotelomer alcohol]; conditions: 6700 nM; in DMSO
Method: as §1

[7] = compound: O=P(O)(O)CCC(F)(F)C(F)(F)C(F)(F)C(F)(F)C(F)(F)C(F)(F)F [2-(Perfluorohexyl)ethylphosphonic acid]; conditions: in DMSO
Method: as §1

Test System | level (log10) ([1]; 6700 nM) | level (log10) ([1]; 20000 nM) | level (log10) ([1]; 60000 nM) | level (log10) ([2]; 6700 nM) | level (log10) ([2]; 20000 nM) | level (log10) ([2]; 60000 nM) | level (log10) ([3]; 6700 nM) | level (log10) ([3]; 20000 nM) | level (log10) ([3]; 60000 nM) | level (log10) ([4]; 6700 nM) | level (log10) ([4]; 20000 nM) | level (log10) ([4]; 60000 nM) | level (log10) ([5]; 6700 nM) | level (log10) ([5]; 20000 nM) | level (log10) [6] | level (log10) ([7]; 6700 nM) | level (log10) ([7]; 20000 nM) | level (log10) ([7]; 60000 nM)
HDF3CGF:M-CSF | -0.015 ± 0.0085 | -0.0295 ± 0.0064 | -0.074 ± 0.014 | 0.0095 ± 0.035 | 0.001 ± 0.038 | -0.304 | -0.039 | -0.079 ± 0.041 | -0.254 ± 0.076 | -0.0385 ± 0.0021 | -0.0225 ± 0.036 | -0.0095 ± 0.013 | 0.0085 ± 0.013 | -0.001 ± 0.0028 | -0.044 ± 0.028 | 0.0025 ± 0.0092 | 0.0265 ± 0.0092 | 0.013 ± 0.014
HDF3CGF:MMP-1 | -0.001 ± 0.0014 | 0.0085 ± 0.0035 | 0.0145 ± 0.018 | 0.0025 ± 0.00071 | 0.005 ± 0.018 | -0.299 | 0.006 ± 0.0057 | 0.03 ± 0.0057 | 0.0375 ± 0.016 | 0.024 ± 0.0014 | 0.0535 ± 0.016 | 0.066 ± 0.0014 | -0.0195 ± 0.0092 | -0.0935 ± 0.0078 | 0.034 ± 0.0014 | 0.006 ± 0.0071 | -0.0095 ± 0.013 | -0.0045 ± 0.067
HDF3CGF:PAI-I | 0.002 ± 0.028 | 0.0045 ± 0.0035 | -0.0105 ± 0.044 | -0.0005 ± 0.0035 | 0.007 ± 0.0014 | -0.564 | 0.0785 ± 0.076 | 0.025 ± 0.04 | 0.0165 ± 0.1 | -0.004 ± 0.0042 | -0.009 ± 0.011 | 0.0065 ± 0.036 | 0.0475 ± 0.052 | -0.0845 ± 0.046 | -0.0555 ± 0.0035 | -0.027 ± 0.023 | -0.027 ± 0.0014 | -0.0925 ± 0.021
HDF3CGF:Proliferation 72hr | 0.0275 ± 0.025 | 0.0095 ± 0.076 | 0.006 ± 0.04 | -0.0305 ± 0.046 | -0.112 ± 0.05 | -1.01 | -0.072 ± 0.079 | -0.454 ± 0.021 | -0.666 ± 0.15 | -0.031 ± 0.011 | 0.0195 ± 0.036 | -0.197 ± 0.11 | -0.38 ± 0.0092 | -0.485 ± 0.005 | -0.374 ± 0.26 | -0.009 ± 0.068 | 0.119 ± 0.021 | 0.191 ± 0.03
HDF3CGF:SRB | 0.0085 ± 0.037 | -0.011 ± 0.0014 | 0.0105 ± 0.028 | -0.0485 ± 0.021 | -0.0255 ± 0.091 | -0.224 | -0.017 ± 0.059 | -0.011 ± 0.072 | -0.0635 ± 0.079 | 0.0175 ± 0.033 | -0.0095 ± 0.026 | -0.04 ± 0.055 | 0.0935 ± 0.005 | 0.0145 ± 0.005 | -0.0335 ± 0.035 | -0.025 ± 0.045 | 0.0355 ± 0.029 | 0.001 ± 0.05
HDF3CGF:TIMP-1 | 0.012 ± 0.037 | -0.0115 ± 0.05 | -0.065 ± 0.083 | 0.0025 ± 0.0078 | 0.0135 ± 0.0092 | -0.307 | 0.001 ± 0.042 | -0.0005 ± 0.04 | -0.0165 ± 0.047 | -0.026 ± 0.027 | -0.0285 ± 0.047 | -0.023 ± 0.025 | 0.069 ± 0.025 | 0.0215 ± 0.011 | -0.013 ± 0.0042 | -0.0115 ± 0.018 | 0.0035 ± 0.005 | 0.0545 ± 0.06
HDF3CGF:TIMP-2 | -0.0105 ± 0.013 | -0.023 ± 0.021 | -0.115 ± 0.0064 | -0.006 ± 0.014 | -0.0105 ± 0.00071 | -0.095 | 0.025 ± 0.092 | -0.0355 ± 0.032 | -0.1545 ± 0.00071 | -0.042 ± 0.081 | -0.101 ± 0.053 | -0.032 ± 0.035 | -0.115 ± 0.013 | -0.408 ± 0.017 | -0.0475 ± 0.079 | 0.0095 ± 0.042 | 0.0365 ± 0.036 | 0.0305 ± 0.036
KF3CT:CCL2/MCP-1 | -0.0255 ± 0.026 | -0.015 ± 0.04 | -0.004 ± 0.047 | -0.028 ± 0.021 | -0.024 ± 0.016 | -0.272 | -0.0075 ± 0.043 | -0.057 ± 0.024 | -0.137 ± 0.085 | 0.0035 ± 0.028 | -0.077 ± 0.025 | -0.009 ± 0.048 | 0.0205 ± 0.013 | 0.006 ± 0.0057 | -0.0165 ± 0.025 | -0.0405 ± 0.019 | -0.0515 ± 0.023 | -0.043 ± 0.013
